These results are taken from ChEMBL document CHEMBL1138717, “Synthesis of 8-thiabicyclo[3.2.1]oct-2-enes and their binding affinity for the dopamine and serotonin transporters” (Bioorg Med Chem Lett, 2004).

Assay [1] concerns the target Sodium-dependent dopamine transporter (Homo sapiens, UniProt Q01959). The assay can be described thus: Inhibition of [3H]WIN-35428 binding to human dopamine transporter (hDAT).
For assay [2], the target named is Sodium-dependent serotonin transporter (Homo sapiens, UniProt P31645). The assay can be described thus: Inhibition of [3H]citalopram binding to human serotonin transporter (hSERT).
Sequence of Sodium-dependent serotonin transporter (P31645 whole entry): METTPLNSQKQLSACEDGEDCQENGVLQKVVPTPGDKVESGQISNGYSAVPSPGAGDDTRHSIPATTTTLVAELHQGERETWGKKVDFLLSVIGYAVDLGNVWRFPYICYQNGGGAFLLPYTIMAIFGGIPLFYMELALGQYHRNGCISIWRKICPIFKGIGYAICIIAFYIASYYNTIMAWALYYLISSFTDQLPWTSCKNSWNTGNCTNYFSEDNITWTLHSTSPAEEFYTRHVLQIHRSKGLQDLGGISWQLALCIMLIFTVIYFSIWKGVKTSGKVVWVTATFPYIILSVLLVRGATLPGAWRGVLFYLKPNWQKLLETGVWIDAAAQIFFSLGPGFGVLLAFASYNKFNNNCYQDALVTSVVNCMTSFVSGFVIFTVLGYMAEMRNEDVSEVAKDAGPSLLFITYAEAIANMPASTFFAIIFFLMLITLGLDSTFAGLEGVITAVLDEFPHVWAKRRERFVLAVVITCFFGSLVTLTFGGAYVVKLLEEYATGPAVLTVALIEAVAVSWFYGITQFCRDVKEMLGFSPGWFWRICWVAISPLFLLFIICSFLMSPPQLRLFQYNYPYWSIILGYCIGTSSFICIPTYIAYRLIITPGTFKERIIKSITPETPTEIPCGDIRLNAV
The nature of assay [3]: Inhibition of [3H]WIN-35428 binding to dopamine transporter (DAT).

Sequence of Sodium-dependent dopamine transporter (Q01959 whole entry): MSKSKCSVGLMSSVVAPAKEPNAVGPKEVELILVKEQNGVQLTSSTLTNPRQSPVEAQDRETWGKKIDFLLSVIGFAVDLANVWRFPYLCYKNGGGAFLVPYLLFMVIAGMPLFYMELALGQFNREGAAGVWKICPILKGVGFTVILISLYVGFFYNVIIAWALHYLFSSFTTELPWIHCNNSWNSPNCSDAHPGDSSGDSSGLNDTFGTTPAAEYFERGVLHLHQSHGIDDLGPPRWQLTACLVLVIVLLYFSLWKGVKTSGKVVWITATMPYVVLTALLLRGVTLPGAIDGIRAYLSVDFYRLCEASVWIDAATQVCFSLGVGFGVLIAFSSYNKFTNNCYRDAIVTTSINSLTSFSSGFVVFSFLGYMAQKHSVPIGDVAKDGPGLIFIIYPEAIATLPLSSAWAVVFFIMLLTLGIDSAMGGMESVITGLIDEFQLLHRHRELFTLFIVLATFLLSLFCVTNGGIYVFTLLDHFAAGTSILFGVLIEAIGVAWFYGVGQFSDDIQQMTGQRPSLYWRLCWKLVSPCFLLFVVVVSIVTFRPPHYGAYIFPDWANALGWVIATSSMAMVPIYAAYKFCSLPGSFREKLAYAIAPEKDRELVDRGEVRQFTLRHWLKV

By IC50 is commonly meant the concentration at which inhibition is half-maximal. A higher IC50 goes with a need for much substance. For `COC(=O)C1=C(c2ccc(Cl)c(Cl)c2)CC2CCC1O2` (stereo unspecified), in assay [1], the half-maximal inhibitory concentration (IC50) was 12 nM. This lies in the double-digit nanomolar range. Take `COC(=O)C1=C(c2ccccc2)CC2CCC1O2` (stereo unspecified): the IC50 in assay [1] was above 10000 nM; in assay [2], above 10 µM.

Take `COC(=O)C1=C(c2ccc(Cl)cc2)CC2CCC1O2` (stereo unspecified): the IC50 in assay [1] is 238 nM; in assay [2] it was above 60 µM.

Consider `COC(=O)C1=C(c2ccc(Cl)c(Cl)c2)CC2CCC1S2` (stereo unspecified), for which the IC50 came out at 4.5 nM in assay [1] and 3.6 µM in assay [2]. For the molecule `COC(=O)C1=C(c2ccc(Cl)cc2)CC2CCC1S2` (stereo unspecified), the IC50 is 13 nM in assay [1] and above 10 µM in assay [2]. As to `COC(=O)C1=C(c2ccc(Br)cc2)CC2CCC1O2` (stereo unspecified), the IC50 is 62 nM in assay [1] and above 30 µM in assay [2]. On the same counts, the results for `COC(=O)C1=C(c2ccccc2)CC2CCC1S2` (stereo unspecified) are 910 nM and above 10 µM. In the case of `COC(=O)C1=C(c2ccc(I)cc2)CC2CCC1O2` (stereo unspecified), the IC50 in assay [1] is 68 nM; in assay [2] it was 4.8 µM. Turning to `COC(=O)C1=C(c2ccc(Br)cc2)CC2CCC1S2` (stereo unspecified), the IC50 in assay [1] is 9.1 nM; in assay [2] it was above 25 µM. Consider `COC(=O)C1=C(c2ccc(F)cc2)CC2CCC1O2` (stereo unspecified), for which the 50% inhibitory concentration (IC50) in assay [1] is 2730 nM; in assay [2], above 50 µM. With `COC(=O)C1=C(c2ccc(F)cc2)CC2CCC1S2` (stereo unspecified), the IC50 was determined as 220 nM in assay [1] and 28 µM in assay [2]. The corresponding values for `COC(=O)C1=C(c2ccc(I)cc2)CC2CCC1S2` (stereo unspecified) are 6.7 nM and 8.7 µM. On the same counts, the results for `COC(=O)C1=C(c2ccc3ccccc3c2)CC2CCC1S2` (stereo unspecified) are 8 nM and 1.3 µM. `COC(=O)[C@H]1[C@@H](OC(=O)c2ccccc2)C[C@@H]2CC[C@H]1N2C` [COCAINE]: the IC50 in assay [3] amounted to 100 nM.
